Read-outs that look alike come from different tables or passages of the source.
Columns and labels:
Assay type in all cases: cell-based
LNCap (PSMA+) cells [1] = assay: Pro-inflammatory cytokine (IFN-gamma) production assay, PSMA-expressing target cells (LNCap), MSD ELISA; settings: Homo sapiens, EC50 in molar (M)
Experimental: (§1) Example 4: Immune Effector Cell (i.e., Anti-Cotinine CAR-T Cell, Anti-Cotinine CAR-NK92 Cell) Functional Study: Pro-Inflammatory Cytokine (e.g., IFN-Gamma) Production Assay
(§2) An ELISA assay was performed to quantify the level of IFN-gamma production by anti-cotinine CAR-T cells in the presence of CyTaC using a Meso Scale Discovery (MSD) T-Plex Multispot Cytokine Assay System. To perform the ELISA assay, each sample was obtained from the co-incubation of anti-cotinine immune effector cells (i.e. CAR-T, CAR-NK92), antigen-expressing target cells, and respective antigen-targeting CyTaCs. CAR-T and CAR-NK cells were prepared as described above in Examples 2 and 3, respectively.
Antigen-expressing target cells were pre-seeded at a density 1.5×10^4 cells per 100 μL of media in each well of a 96-well plate and grown overnight. For functional confirmation of immune effector cell (i.e. anti-cotinine CAR-T cells, anti-cotinine CAR-NK92 cells) activation, 100 nM or 10 nM of CyTaC was introduced into each well where the target cells were seeded to activate the anti-cotinine immune effector cell. For dose response determinations, 10 μM to 0.01 nM of CyTaC was added to the wells. The anti-cotinine immune effector cells (i.e. CAR-T, CAR-NK92) were next added to the wells at a fixed ratio (between 1:1 and 10:1) of effector cells to antigen-expressing After co-incubation, the supernatants were removed from the wells and analyzed to determine IFNγ release using a pro-inflammatory cytokine production assay (Meso Scale Diagnostics V-PLEX Human IFNγ Kit) according to manufacturer's protocol.
For dose response determinations, EC50 calculations were done using Graphpad Prism Software, specifically a nonlinear regression curve fit (Y=Bottom+(Top−Bottom)/(1+10^((Log EC50−X)*HillSlope))).
(§3) CyTaC compounds of Formula (I) were tested for anti-cotinine immune cell (i.e. CAR-T, CAR-NK92) activation as measured by IFN-Gamma production in the above assay in one or more experimental runs and the results are shown in Table 5. Potency of the compounds of Formula (I) is reported as a pEC50 value. The pEC50 value is the negative log of the EC50 value, wherein the EC50 value is half maximal effective concentration measured in molar (M). For compounds tested in more than one experimental run, the pEC50 value is reported as an average.

[2] = system: PSMA-expressing target cells; assay: In vitro cell killing, Method 1: CellTiter-Glo luminescent cell viability assay, PSMA-expressing target cells; settings: 24 hours, EC50 in molar (M)
Experimental: (§4) In vitro cell killing of antigen expressing target cells in the presence of anti-cotinine CAR-T or CAR-NK cells and antigen matched CyTaCs was evaluated by three different methods: Cell Titler Glo assay (method 1); Real-Time Cell Analysis (RTCA) Impedance Assay (method 2); and live cell analysis assay (method 3), as described below.
(§5) A luminescent assay was performed to quantify the number of viable cells remaining following co-incubation of antigen-expressing adherent target cells, anti-cotinine CAR-T cells, and antigen matched CyTaCs using a CellTiter-Glo Luminescent Cell Viability Assay (Promega). […] After co-incubation, the supernatants were removed from the wells, the residual adherent target cells in the wells were then analyzed for cell viability using CellTiter-Glo® Luminescent Cell Viability Assay (Promega) according to manufacturer's instructions, as described below in Example 5.
(§6) CyTaC compounds of Formula (I) were evaluated for anti-cotinine immune cell mediated cell cytotoxicity in the above assay in one or more experimental runs and the results are shown in Table 6 below and FIGS. 2A, 2B, and 2C. […] The pEC50 value is the negative log of the EC50 value, wherein the EC50 value is half maximal effective concentration measured in molar (M). […]

LNCap (PSMA+) cells [3] = assay: In vitro cell killing, Method 3: Live-Cell Analysis assay (Incucyte), PSMA-expressing target cells (LNCap); settings: Homo sapiens, 24 hour timepoint, 5:1 effector cells to target cells, EC50 in molar (M), read-out: Incucyte ® pEC50, LNCap (converted)
Experimental: as §4
Method 3: Live-Cell Analysis Assay (Incucyte®)
A Live-Cell Analysis assay (Incucyte®) was performed to assess in vitro cell killing of fluorescently-labelled antigen-expressing adherent target cells co-incubated with anti-cotinine immune effector cells (i.e. CAR-T cells, CAR-NK92 cells) and antigen matched CyTaCs. To perform the live-cell analysis assay, fluorescently-labelled antigen-expressing target cells were seeded at a density of 1.0×10^4 to 3×10^4 cells per 100 μL of media, and grown overnight in a 37° C. incubator. The next day, 50 μL of antigen-matched CyTaC solution was added at a concentration to result in 10 μM to 0.01 nM final assay concentration, followed by the addition of 50 μL anti-cotinine immune effector cells (i.e. CAR-T cells, CAR-NK92 cells) at a ratio of 5:1 effector cells to antigen-presenting target cells. The samples were placed in Live-Cell Analysis (Incucyte®) instrument, and the fluorescence of the wells was recorded every 2 hours for an additional 24 to 48 hours.
as §3, with “were evaluated” for “were tested”, “CAR-NK92) mediated cell cytotoxicity” for “CAR-NK92) activation”, “by fluorescence of viable cells” for “by IFN-Gamma production”, “Table 7 and FIG. 4.” for “Table 5.”, “pEC50 value at the 24 hour timepoint.” for “pEC50 value.”

[4] = system: αVβ6-expressing target cells; assay: In vitro cell killing, Method 1: CellTiter-Glo luminescent cell viability assay, αVβ6-expressing target cells; settings: anti-cotinine CAR-T, 24 hours, EC50 in molar (M), read-out: Cell Titler Glo pEC50 (CAR-T) (converted)
Experimental: as §4, §5, §6

[5] = system: αVβ6-expressing target cells; assay: Pro-inflammatory cytokine (IFN-gamma) production assay, αVβ6-expressing target cells; settings: EC50 in molar (M)
Experimental: as §1, §2
(§7) Antigen-expressing target cells were pre-seeded at a density 1.5×10^4 cells per 100 μL of media in each well of a 96-well plate and grown overnight. […] The anti-cotinine immune effector cells (i.e. CAR-T, CAR-NK92) were next added to the wells at a fixed ratio (between 1:1 and 10:1) of effector cells to antigen-expressing After co-incubation, the supernatants were removed from the wells and analyzed to determine IFNγ release using a pro-inflammatory cytokine production assay (Meso Scale Diagnostics V-PLEX Human IFNγ Kit) according to manufacturer's protocol. […]

[6] = system: FOLR-expressing target cells; assay: Pro-inflammatory cytokine (IFN-gamma) production assay, FOLR-expressing target cells; settings: EC50 in molar (M)
Experimental: as §1, §2, §7

[7] = system: FOLR-expressing target cells; assay: In vitro cell killing, Method 1: CellTiter-Glo luminescent cell viability assay, FOLR-expressing target cells; settings: 24 hours, EC50 in molar (M)
Experimental: as §4, §5, §6

[8] = system: FAP-expressing target cells; assay: Pro-inflammatory cytokine (IFN-gamma) production assay, FAP-expressing target cells; settings: EC50 in molar (M)
Experimental: as §1, §2, §7

[9] = system: FAP-expressing target cells; assay: In vitro cell killing, Method 1: CellTiter-Glo luminescent cell viability assay, FAP-expressing target cells; settings: 24 hours, EC50 in molar (M)
Experimental: as §4, §5, §6

[10] = CAR-T cell activation, PSMA-targeting CyTaCs, read-out: IFNγ Production pEC50, LNCap (converted)
[11] = anti-cotinine CAR-NK, read-out: Cell Titler Glo pEC50 (CAR-NK) (converted)
[12] = anti-cotinine CAR-T, read-out: Cell Titler Glo pEC50 (CAR-T) (converted)
[13] = anti-cotinine CAR-NK, read-out: IFNγ Production pEC50 (CAR-NK) (converted)
[14] = anti-cotinine CAR-T, read-out: IFNγ Production pEC50 (CAR-T) (converted)

CN1C(=O)C[C@H](C(=O)NCCO[C@H]2CC[C@H](OCCCC(=O)N[C@H]3CC[C@H](C(=O)N[C@@H](Cc4ccc5ccccc5c4)C(=O)NCCCC[C@H](NC(=O)N[C@@H](CCC(=O)O)C(=O)O)C(=O)O)CC3)CC2)[C@H]1c1cccnc1 [compound 1]
EC50 (LNCap (PSMA+) cells [1]; [10]): 1.58e-10 M
EC50 (LNCap (PSMA+) cells [1]; anti-cotinine CAR-NK, PSMA-expressing target cells, read-out: IFNγ Production pEC50 (CAR-NK) (converted)): 1.58e-11 M
EC50 (LNCap (PSMA+) cells [1]; anti-cotinine CAR-T, PSMA-expressing target cells, read-out: IFNγ Production pEC50 (CAR-T) (converted)): 1.58e-10 M
EC50 [2, 11]: 3.98e-11 M
EC50 [2, 12]: 1.58e-10 M
EC50 (LNCap (PSMA+) cells [3]): 2.51e-10 M

CN1C(=O)C[C@H](C(=O)NCCO[C@H]2CC[C@H](OCCCC(=O)N[C@H]3CC[C@H](C(=O)NCCNC(=O)[C@H](Cc4ccccc4)NC(=O)[C@H](Cc4ccccc4)NC(=O)CCCCCCCNC(=O)CC[C@H](NC(=O)N[C@@H](CCC(=O)O)C(=O)O)C(=O)O)CC3)CC2)[C@H]1c1cccnc1 [compound 2]
EC50 (LNCap (PSMA+) cells [1]; [10]): 5.01e-08 M
EC50 (LNCap (PSMA+) cells [3]): 3.98e-09 M

CN1C(=O)C[C@H](C(=O)NCCNC(=O)[C@H](Cc2ccccc2)NC(=O)[C@H](Cc2ccccc2)NC(=O)CCCCCCCNC(=O)CC[C@H](NC(=O)N[C@@H](CCC(=O)O)C(=O)O)C(=O)O)[C@H]1c1cccnc1 [compound 3]
EC50 (LNCap (PSMA+) cells [1]; [10]): 1e-07 M
EC50 (LNCap (PSMA+) cells [3]): 1.26e-08 M

CN1C(=O)C[C@H](C(=O)NCCO[C@H]2CC[C@H](OCCCC(=O)N[C@H]3CC[C@H](C(=O)NCCNC(=O)CC[C@H](NC(=O)N[C@@H](CCC(=O)O)C(=O)O)C(=O)O)CC3)CC2)[C@H]1c1cccnc1 [compound 4]
EC50 (LNCap (PSMA+) cells [1]; [10]): 5.01e-08 M
EC50 (LNCap (PSMA+) cells [3]): 1e-08 M

CN1C(=O)C[C@H](C(=O)NCCO[C@H]2CC[C@H](OCCCC(=O)N[C@H]3CC[C@H](C(=O)N4CCN(c5cccc([C@H](CC(=O)O)CN6CC[C@@H](CCc7ccc8c(n7)NCCC8)C6)c5)CC4)CC3)CC2)[C@H]1c1cccnc1 [compound 5]
EC50 [4]: 2.51e-10 M
EC50 [5, 13]: 5.01e-10 M
EC50 [5, 14]: 6.31e-10 M

CN1C(=O)C[C@H](C(=O)NCCO[C@H]2CC[C@H](OCCCC(=O)N[C@H]3CC[C@H](C(=O)NCCNC(=O)CC[C@H](NC(=O)c4ccc(NCc5cnc6nc(N)[nH]c(=O)c6n5)cc4)C(=O)O)CC3)CC2)[C@H]1c1cccnc1 [compound 6]
EC50 [6, 13]: 2.51e-12 M
EC50 [6, 14]: 1.58e-08 M
EC50 [7, 11]: 1e-09 M
Cell Titler Glo pEC50 (CAR-T) ([7]; anti-cotinine CAR-T): Inactive

CN(CCNC(=O)[C@H]1CC[C@H](NC(=O)CCCO[C@H]2CC[C@H](OCCNC(=O)[C@H]3CC[C@H](NC(=O)CCCO[C@H]4CC[C@H](OCCNC(=O)[C@H]5CC(=O)N(C)[C@@H]5c5cccnc5)CC4)CC3)CC2)CC1)c1ccc2nccc(C(=O)NCC(=O)N3CC(F)(F)C[C@H]3C#N)c2c1 [compound 7]
EC50 [8, 13]: 5.01e-11 M
EC50 [8, 14]: 1e-09 M
EC50 [9, 11]: 5.01e-10 M
EC50 [9, 12]: 2e-10 M

— patent publication US20260325580A1, “CYTOTOXICITY TARGETING CHIMERAS FOR CAR-T AND CAR-NK CELLS” (GLAXOSMITHKLINE INTELLECTUAL PROPERTY DEVELOPMENT LIMITED, priority 2023, published 2026)
